According to patent US4999424A, “GAR transformylase inhibitor” (The Pennsylvania State University, priority 1988, dated 1991):
Where two headings read alike, the source gives them in different places.

Experiments:
[1] = test system: solid tumors; settings: variety of solid tumors in mice; cited from earlier work
[2] = biological target: T1, E. coli GAR TFase (Escherichia coli, UniProt P08179); assay: Fluorescence titration, dissociation constant for E. coli GAR TFase; type: binding
T1 construct: made in house; host or cells: E. coli TX393 with multicopy plasmid pJS85, or E. coli TX635 with lambda pL plasmid pJS119 or pJS167
T1 sequence (P08179 1-212): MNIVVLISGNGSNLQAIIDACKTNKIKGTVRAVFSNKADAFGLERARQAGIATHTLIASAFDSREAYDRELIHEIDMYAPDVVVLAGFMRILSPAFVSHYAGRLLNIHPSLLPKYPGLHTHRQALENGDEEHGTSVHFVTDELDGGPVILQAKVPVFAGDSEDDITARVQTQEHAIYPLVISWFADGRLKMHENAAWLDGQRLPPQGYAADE
Description: The thermodynamic dissociation constant, KD, for the E.β-TGDDF complex was measured by following the enhancement of the inhibitor's 395 nm fluorescence (excitation at 275 nm) upon binding to GAR TFase. A concentrated E. coli GAR TFase solution was added to an 11 nM solution of purified β-TGDDF; for each addition, the fluorescence at three different wavelengths (396, 400, and 405 nm) was measured. Fluorescence titration data was analyzed by the method of Taira and Benkovic, J. Med. Chem., 31, 129-137 (1988).
(§1) In analyzing the biological activity of the compounds of the present invention, GAR TFase from E. coli was used. This enzyme behaves like the mammalian and avian enzyme with respect to substrate specificity, yet is a simple and effective system having only one biological activity. That is, unlike the avian trifunctional GAR TFase, the E. coli species has a sole function. This follows from the genetic evidence of Smith and Daum, J. Biol. Chem., 262, 10565-10569 (1987) as w®11 as the work of Schrimsher et al., Biochemistry, 25, 4366-4371 (1986) who have shown that […] from E. coli is a monofunctional protein, whereas, in chicken it belongs to a trifunctional protein containing, the activates: GAR SYNthase, GAR TFase, and AIR SYNthase.
(§2) The E. coli GAR TFase binding constants for the compounds of the present invention and other folate analogs are shown in Table I below: […]

[3] = biological target: T1, E. coli GAR TFase; assay: E. coli GAR TFase inhibition/activity assay (5,8-dideazafolate absorbance at 295 nm); type: biochemical
Description: (§3) All assays were carried out by following the increase of 5,8-dideazafolate absorbence at 295 nm in buffered medium at 26° C. To initiate the reaction, enzyme (1 nM final concentration) was added to a mixture of saturating substrates and variable amounts of inhibitor. A characteristic family of curves was obtained, showing slow, tight-binding inhibition. See, Morrison, Trends Biochem. Sc., 7, 102 (1982) and Morrison, et al., Adv. Enzymology, Relat. Areas Mol. Biol., 57, 201-301 (1987).
as §1
The E. coli GAR TFase binding constants for the compounds of the present invention and other folate analogs are shown in Table I below:
Table II illustrates the specificity of beta-TGDDF for GAR TFase in comparison with other reduced-folate utilizing enzymes. This test, was conducted using the same [I]/[E]ratios as stated previously.

[4] = test system: X-5563; settings: in vivo and in vitro; cited from earlier work
[5] = test system: GAR TFase; settings: indirectly shown, solid tumors in mice; cited from earlier work
[6] = test system: L1210 leukemia; settings: in vivo and in vitro; cited from earlier work
[7] = test system: HL-60; settings: in vivo and in vitro; cited from earlier work
[8] = test system: 6C3HED lymphosarcoma; settings: in vivo and in vitro; cited from earlier work
[9] = test system: B-16 melanoma; settings: in vivo and in vitro; cited from earlier work
[10] = test system: intracellular pools of ATP and GTP; settings: tested against solid tumors in mice; cited from earlier work
[11] = test system: P388 leukemia; settings: in vivo and in vitro; cited from earlier work
[12] = substrate: Nc1nc(O)c2cc(CN(C=O)c3ccc(C(=O)N[C@@H](CCC(=O)O)C(=O)O)cc3)ccc2n1; assay: E. coli GAR TFase inhibition/activity assay (5,8-dideazafolate absorbance at 295 nm); type: biochemical; settings: other: Table I, 26.0 °C
Description: as §3, §1, §2

[13] = substrate: NCC(=O)N[C@@H]1O[C@H](COP(=O)(O)O)[C@@H](O)[C@H]1O; assay: as above; type: biochemical; settings: other: Table I, 26.0 °C
Description: as §3, §1, §2

CN(Cc1cnc2nc(N)nc(N)c2n1)c1ccc(C(=O)N[C@@H](CCC(=O)O)C(=O)O)cc1 [methotrexate]
Activity against solid tumors [1]: minimal activity

Nc1nc2ccc(CN(C(=O)CSCC(=O)N[C@H]3O[C@H](COP(=O)(O)O)[C@@H](O)[C@H]3O)c3ccc(C(=O)N[C@@H](CCC(=O)O)C(=O)O)cc3)cc2c(=O)[nH]1 [alpha-TGDDF]
binding affinity for GAR TFase (comparison of anomers) ([2]; alpha- versus beta-anomer): lower than the beta-anomer
Kd ([2]; alpha-anomer, read-out: KD): 5.8 nM

Nc1nc2ccc(CNc3ccc(C(=O)N[C@@H](CCC(=O)O)C(=O)O)cc3)cc2c(=O)[nH]1 [DDF, 5,8-dideazafolate, reference compound]
Ki [3]: 28100 nM

Nc1nc2ccc(CN(C(=O)CSCC(=O)NC3O[C@H](CO)[C@@H](O)[C@H]3O)c3ccc(C(=O)N[C@@H](CCC(=O)O)C(=O)O)cc3)cc2c(=O)[nH]1 (stereo partly drawn) [alpha,beta-dephospho-TGDDF]
Ki ([3]; Table I, E. coli GAR TFase, read-out: KI): 1700 nM

Nc1nc2c(c(=O)[nH]1)CC(CCc1ccc(C(=O)NC(CCC(=O)O)C(=O)O)cc1)CN2 (stereo not shown) [DDATHF]
Anti-tumor activity [4]: anti-tumor,activity
Activity against solid tumors [1]: impressive activity
Inhibition of GAR TFase [5]: indirectly shown to inhibit GAR TFase
Anti-tumor activity [6]: anti-tumor,activity
Anti-tumor activity [7]: anti-tumor,activity
Anti-tumor activity [8]: anti-tumor,activity
Anti-tumor activity [9]: anti-tumor,activity
Effect on intracellular pools of ATP and GTP [10]: depletion of intracellular pools of ATP and GTP
Anti-tumor activity [11]: anti-tumor,activity

B1: E. coli GAR TFase (Escherichia coli K-12) (protein)
chain: MNIVVLISGNGSNLQAIIDACKTNKIKGTVRAVFSNKADAFGLERARQAGIATHTLIASAFDSREAYDRELIHEIDMYAPDVVVLAGFMRILSPAFVSHYAGRLLNIHPSLLPKYPGLHTHRQALENGDEEHGTSVHFVTDELDGGPVILQAKVPVFAGDSEDDITARVQTQEHAIYPLVISWFADGRLKMHENAAWLDGQRLPPQGYAADE
notes: made in house; host or cells: E. coli TX393 with multicopy plasmid pJS85, or E. coli TX635 with lambda pL plasmid pJS119 or pJS167
Km [12]: 36 µM
Km [13]: 20 µM
